From patent publication US8101622B2, “Pyridopyrimidinone inhibitors of PI3Kα and mTOR” (Exelixis, Inc., priority 2008, dated 2012)

Tests used:
[1] = biological target: PI3Kα (Homo sapiens, UniProt P42336); assay: PI3K luciferase-coupled chemiluminescence assay (PI3Kα); type: biochemical; settings: first value of cell 'P13K-α, β'; 1 μM ATP, 10 μM PIP2
Procedure: (§1) PI3K Luciferase-Coupled Chemiluminescence Assay Protocol
(§2) PI3Kα activity is measured as the percent of ATP consumed following the kinase reaction using luciferase-luciferin-coupled chemiluminescence. Reactions were conducted in 384-well white, medium binding microtiter plates (Greiner). Kinase reactions were initiated by combining test compounds, ATP, substrate (PIP2), and kinase in a 20 μL volume in a buffer solution. The standard PI3Kalpha assay buffer is composed 50 mM Tris, pH 7.5, 1 mM EGTA, 10 mM MgCl2, 1 mM DTT and 0.03% CHAPS. The standard assay concentrations for enzyme, ATP, and substrate are 1.5 nM, 1 μM, and 10 μM, respectively. The reaction mixture was incubated at ambient temperature for approximately 2 h. Following the kinase reaction, a 10 μL aliquot of luciferase-luciferin mix (Promega Kinase-Glo) was added and the chemiluminescence signal measured using a Victor2 plate reader (Perkin Elmer). Total ATP consumption was limited to 40-60% and IC50 values of control compounds correlate well with literature references. PI3Kα can be replaced with PI3Kβ, PI3Kδ, or PI3Kγ to determine the compound's activity for the other isoforms of PI3K.

[2] = biological target: PI3Kβ (Homo sapiens, UniProt P42338); assay: PI3K luciferase-coupled chemiluminescence assay (PI3Kβ in place of PI3Kα); type: biochemical; settings: second value of cell 'P13K-α, β'
Chain of PI3Kβ (P42338 whole entry, species assumed): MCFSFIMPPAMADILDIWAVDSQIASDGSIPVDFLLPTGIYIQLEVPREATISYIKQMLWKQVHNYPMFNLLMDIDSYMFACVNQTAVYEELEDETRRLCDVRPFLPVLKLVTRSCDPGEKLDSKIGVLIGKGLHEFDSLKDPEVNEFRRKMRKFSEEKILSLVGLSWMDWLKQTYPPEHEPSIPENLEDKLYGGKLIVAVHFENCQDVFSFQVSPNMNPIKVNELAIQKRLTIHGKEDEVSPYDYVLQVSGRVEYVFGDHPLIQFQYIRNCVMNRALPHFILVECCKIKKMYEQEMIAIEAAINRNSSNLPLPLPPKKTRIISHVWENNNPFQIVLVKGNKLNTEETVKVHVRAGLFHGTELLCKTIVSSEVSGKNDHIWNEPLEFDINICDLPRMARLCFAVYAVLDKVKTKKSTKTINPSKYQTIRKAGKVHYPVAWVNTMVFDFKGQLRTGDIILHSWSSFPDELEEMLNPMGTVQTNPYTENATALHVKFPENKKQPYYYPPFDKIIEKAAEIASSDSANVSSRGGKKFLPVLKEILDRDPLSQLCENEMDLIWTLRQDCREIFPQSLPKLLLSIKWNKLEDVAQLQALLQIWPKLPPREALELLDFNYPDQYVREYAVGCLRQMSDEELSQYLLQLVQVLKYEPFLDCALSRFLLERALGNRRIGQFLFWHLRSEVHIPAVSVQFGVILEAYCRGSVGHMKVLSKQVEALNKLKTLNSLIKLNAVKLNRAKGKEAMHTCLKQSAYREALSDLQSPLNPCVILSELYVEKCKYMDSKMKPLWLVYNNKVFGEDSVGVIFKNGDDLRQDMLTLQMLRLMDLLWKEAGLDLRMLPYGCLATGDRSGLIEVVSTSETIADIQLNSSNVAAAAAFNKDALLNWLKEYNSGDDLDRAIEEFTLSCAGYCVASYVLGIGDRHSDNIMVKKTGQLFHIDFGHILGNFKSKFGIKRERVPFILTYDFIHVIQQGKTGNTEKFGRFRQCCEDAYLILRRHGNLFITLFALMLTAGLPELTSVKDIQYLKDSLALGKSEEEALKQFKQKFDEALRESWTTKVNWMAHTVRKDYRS
Chain of PI3Kβ (P27986 whole entry partner, species assumed): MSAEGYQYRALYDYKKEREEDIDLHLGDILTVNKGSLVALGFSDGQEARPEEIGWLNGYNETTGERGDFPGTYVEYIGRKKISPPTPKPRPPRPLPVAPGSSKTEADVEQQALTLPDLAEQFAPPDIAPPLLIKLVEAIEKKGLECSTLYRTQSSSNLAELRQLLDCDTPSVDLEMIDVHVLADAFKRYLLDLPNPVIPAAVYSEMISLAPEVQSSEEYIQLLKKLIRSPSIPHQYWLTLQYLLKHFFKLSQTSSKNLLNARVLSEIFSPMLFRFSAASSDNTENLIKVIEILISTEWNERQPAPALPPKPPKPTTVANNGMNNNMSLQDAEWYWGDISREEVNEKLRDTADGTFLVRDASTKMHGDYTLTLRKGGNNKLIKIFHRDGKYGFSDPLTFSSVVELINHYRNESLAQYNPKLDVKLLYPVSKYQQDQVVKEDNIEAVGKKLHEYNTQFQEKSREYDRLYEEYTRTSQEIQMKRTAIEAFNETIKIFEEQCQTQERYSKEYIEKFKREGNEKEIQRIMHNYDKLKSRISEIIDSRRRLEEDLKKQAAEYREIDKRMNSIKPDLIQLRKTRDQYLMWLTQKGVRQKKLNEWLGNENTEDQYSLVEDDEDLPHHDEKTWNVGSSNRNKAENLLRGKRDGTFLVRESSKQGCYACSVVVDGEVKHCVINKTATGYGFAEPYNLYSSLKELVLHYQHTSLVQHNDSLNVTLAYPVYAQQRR
Procedure: as §1, §2

[3] = biological target: mTOR/GbL/Raptor (mTORC1) (Homo sapiens, UniProt P42345); assay: mTOR/GbL/Raptor (mTORC1) ELISA assay; type: biochemical; settings: mTORC1, 10 μM ATP, 4E-BP1 substrate
Procedure: mTOR/GbL/Raptor (mTORC1) ELISA Assay
The measurement of mTORC1 enzyme activity was performed in an ELISA assay format following the phosphorylation of 4E-BP1 protein. All experiments were performed in the 384-well format. Generally, 0.5 μL DMSO containing varying concentrations of the test compound was mixed with 15 μL enzyme solution. Kinase reactions were initiated with the addition of 15 μL of substrates-containing solution. The assay conditions were as follows; 0.2 nM mTORC1, 10 μM ATP and 50 nM NHis-tagged 4E-BP1 in 20 mM Hepes, pH 7.2, 1 mM DTT, 50 mM NaCl, 10 mM MnCl2, 0.02 mg/mL BSA, 0.01% CHAPS, 50 mM ([…]. Following an incubation of 120 minutes at ambient temperature, 20 μL of the reaction volume was transferred to a Ni-Chelate-coated 384-well plate. The binding step of the 4E-BP1 protein proceeded for 60 minutes, followed by washing 4 times each with 50 μL of Tris-buffered saline solution (TBS). Anti-phospho-4E-BP1 rabbit-IgG (20 μL, 1:5000) in 5% BSA-TBST (0.2% Tween-20 in TBS) was added and further incubated for 60 minutes. Incubation with a secondary HRP-tagged anti-IgG was similarly performed after washing off the primary antibody (4 washes of 50 μL). Following the final wash step with TBST, 20 μL of SuperSignal ELISA Femto (Pierce Biotechnology) was added and the luminescence measured using an EnVision plate reader.

[4] = tested on: pS6 (S240/S244) PC-3 cell line; assay: pS6 (S240/244) ELISA assay in PC-3 cells; type: cell-based, human; settings: 3 h compound, ratio pS6 to total S6
Procedure: PC-3 and MCF-7 cells (both from ATCC) were seeded at 8×10^3 cells per well in 96-well plates (Corning, 3904) in DMEM (Cellgro) containing 10% FBS (Cellgro), 1% NEAA (Cellgro) and 1% penicillin-streptomycin (Cellgro). Two plates were prepared for cell fixation ELISA, one for pS6 (S240/244) and one for total S6. Cells were incubated at 37° C., 5% CO2 for 48 h, and the growth medium was replaced with serum-free DMEM. Serial dilutions of the test compound in 0.3% DMSO (vehicle) were added to the cells and incubated for 3 h. To fix the cells, medium was removed and 100 μL/well of 4% formaldehyde (Sigma Aldrich, F8775) in TBS (20 mM Tris, 500 mM NaCl) was added to each well at RT for 30 min. Cells were washed 3 times with 200 μL TBS containing 0.1% Tween20 (Bio-Rad, catalog #170-6351) (TBST), and quenched with 100 μL 0.6% H2O2 (VWR International, catalog #VW3742-1) in TBST for 30 min at RT. Plates were washed 3 times with 200 μL TBST and blocked with 100 μL 5% BSA (Jackson ImmunoResearch, 001-000-173) in TBST for 1 h at RT. Anti-pS6 (S240/244) antibody (Cell Signaling Technology, 2215) and anti-total-S6 antibody (Cell Signaling Technology, 2217) were diluted 1/500 in 5% BSA in TBST, and 50 μL of either primary antibody solution was added to one plate to detect pS6 or total S6. After incubation overnight at 4° C., plates were washed 4 times with 200 μL TBST. Goat anti-rabbit secondary antibody (Jackson ImmunoResearch, catalog #111-035-003) was diluted at 1/15000 in 5% BSA in TBST. 100 μL of antibody solution was added to each well and incubated for 1 h at RT. Plates were washed 3 times with 200 μL TBST and 2 times with 200 μL TBS. Chemiluminescent substrate (Super Signal Elisa Femto Chemiluminescent Substrate; Pierce, 37075) was prepared at RT. One-hundred μL of chemiluminescent substrate per well was added and then the plate was shaken for 1 min. Luminescence was read immediately on a Wallac plate reader. IC50 values were determined based on the ratio of pS6 to total S6 signal for compound treated wells, normalized to the DMSO-treated control wells.

[5] = tested on: MCF-7 cells; assay: MCF-7 2 day BrdU cell proliferation assay; type: cell-based, human; settings: MCF-7, 48 hr
Procedure: (§3) MCF-7 and PC-3 2 Day BrdU Cell Proliferation Assay
(§4) MCF-7 (ATCC) and PC-3 (ATCC) cells were seeded onto 96-well plates (Corning, #3904) in their growth medium, DMEM (Cellgro, #10-014-CV)+10% heat-inactivated FBS (Invitrogen)+1% Pen/Strep (Cellgro, #30-002-CI)+1% NEAA (Cellgro, #25-025-CI) at a seeding density of 15000 and 8000 cells/well, respectively. Cells were incubated overnight at 37° C., 5% CO2. Cells were then treated the next day with a serial dilution of compound in its growth medium (containing a final concentration of 0.3% DMSO). Triplicate wells were used for each compound concentration. The control wells received 0.3% DMSO in growth medium. The plates were incubated at 37° C., 5% CO2 for an additional 48 hr. Cells were labeled with BrdU (Roche, #10280879001, 20 μM) for 2-4 hr and then fixed with 70% EtOH+0.1 M NaOH for 30 min at RT. Anti-BrdU-Peroxidase (Roche, #11585860001, 1/2000 in PBS+1% BSA) conjugate was added to the cells, after which the plates were washed 3 times with 1×PBS. Chemiluminescent substrate solution (Pierce, #3707A/B) was added, and the plates were read for luminescence using the Wallac Victor plate reader for 0.1 sec. IC50 values were determined based on cell proliferation with compound treatment compared to the 0.3% DMSO vehicle control.

[6] = tested on: PC-3 cells; assay: PC-3 2 day BrdU cell proliferation assay; type: cell-based, human
Procedure: as §3, §4

[7] = Mouse microsomal oxidation assay; type: in vitro ADME; settings: 15 μM compound, 0.5 mg/mL microsomal protein, 1 mM NADPH, 37° C., 30 min; +/−10% equivalent to little or no oxidation
Procedure: Mouse Microsomal Oxidation Assay
Microsomal oxidation of test compounds in the presence of mouse liver microsomal fractions was conducted in 96-well microtiter plates. Liver microsomal preparations were purchased from BD Gentest (Cat #452701). Test compounds were incubated in duplicate at 37° C. for 30 min in the presence of liver microsomes and NADPH. Reaction mixtures (75 μL) contained a final concentration of 15 μM test compound, 0.15% DMSO, 0.5 mg/mL microsomal protein and 1 mM NADPH in 100 mM potassium phosphate, pH 7.4 buffer. Control incubations contained the full complement of enzyme and substrate but no NADPH added. All test-sets included reference CYP450 substrates to verify assay performance. Reactions were terminated by the addition of 150 μL acetonitrile containing 0.1% formic acid. The concentration of the test compound remaining was determined by LC/MS/MS analysis on Sciex API-3000 instrument. The % oxidation is determined by the change in peak integration for the test compound (+/−NADPH) relative to the peak integration of internal standard injected with the sample: % oxidation=[((Int. peakcompound, no NADPH/Int. peakstandard)−(Int. peakcompound, NADPH/Int. peakstandard))[…]] Chromatographic separation of analytes was achieved using a Phenomenex Synergi Hydro-RP column (Torrance, Calif.) and a mobile phase consisting of 0.1% formic acid in acetonitrile and 0.1% formic acid in water. A linear gradient from 2-98% acetonitrile was used to elute compounds from the HPLC column. The typical variation (ie, precision) observed in the measurements for a given sample (e.g., multiple injections of the same sample) is ca. 10%, and thus experimental values of +/−10% can be considered to be equivalent to little or no oxidation.

Chain of PI3Kα (P42336 whole entry): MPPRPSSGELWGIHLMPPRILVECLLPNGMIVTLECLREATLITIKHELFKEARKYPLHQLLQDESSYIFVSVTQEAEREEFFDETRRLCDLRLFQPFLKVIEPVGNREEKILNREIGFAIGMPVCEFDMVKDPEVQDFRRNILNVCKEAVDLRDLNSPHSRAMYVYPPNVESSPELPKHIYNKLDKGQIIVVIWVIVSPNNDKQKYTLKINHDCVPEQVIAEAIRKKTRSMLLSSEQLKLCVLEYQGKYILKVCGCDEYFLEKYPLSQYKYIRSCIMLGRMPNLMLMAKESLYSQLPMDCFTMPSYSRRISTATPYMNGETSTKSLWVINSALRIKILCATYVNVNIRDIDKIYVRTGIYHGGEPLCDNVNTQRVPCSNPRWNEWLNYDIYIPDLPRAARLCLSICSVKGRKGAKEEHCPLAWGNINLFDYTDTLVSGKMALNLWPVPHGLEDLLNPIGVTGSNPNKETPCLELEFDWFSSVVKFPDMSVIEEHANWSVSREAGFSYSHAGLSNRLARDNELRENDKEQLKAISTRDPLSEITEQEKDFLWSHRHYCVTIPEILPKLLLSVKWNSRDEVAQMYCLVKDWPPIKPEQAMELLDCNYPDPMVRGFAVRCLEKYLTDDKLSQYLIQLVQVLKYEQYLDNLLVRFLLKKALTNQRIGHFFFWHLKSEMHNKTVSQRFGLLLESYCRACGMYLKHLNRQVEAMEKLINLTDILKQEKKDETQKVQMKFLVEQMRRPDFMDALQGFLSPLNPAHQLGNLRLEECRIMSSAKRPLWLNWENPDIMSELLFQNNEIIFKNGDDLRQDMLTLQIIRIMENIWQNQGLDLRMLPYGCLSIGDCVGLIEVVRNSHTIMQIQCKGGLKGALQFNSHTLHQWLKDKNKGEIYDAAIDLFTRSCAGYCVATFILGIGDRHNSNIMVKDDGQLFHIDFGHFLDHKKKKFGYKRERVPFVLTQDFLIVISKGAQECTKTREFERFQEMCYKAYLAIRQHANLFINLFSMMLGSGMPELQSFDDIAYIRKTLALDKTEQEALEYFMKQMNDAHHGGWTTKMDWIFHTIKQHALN
Chain of PI3Kα (P27986 whole entry partner): as the sequence (P27986 whole entry partner, species assumed) above

IC50 [1] | IC50 [2] | IC50 [3] | IC50 [4] | IC50 [5] | IC50 ([6]; PC-3, 48 hr) | Mouse Liver Microsome Oxidation (%) [7] | IC50 ([4]; Homo sapiens, PC-3, 3 h) | IC50 ([5]; Homo sapiens, MCF7, 48 h) | IC50 ([6]; Homo sapiens, PC-3, 48 h) | Structure (SMILES)
5.5 nM | 52.1 nM | 2.6 nM | 15.8 nM | 97.8 nM | 150 nM | 15.2% |  |  |  | Cc1nc(N)nc2c1cc(-c1ccc(N)nc1)c(=O)n2C1CCCOC1 (centres unmarked) [listing 1 of 2 here]
 |  |  |  |  |  | 6.6% | 25.6 nM | 151 nM | 297 nM | Cc1nc(N)nc2c1cc(-c1ccc(N)nc1)c(=O)n2C1CCCOC1 (centres unmarked) [listing 2 of 2 here]
7.3 nM | 60.8 nM | 3 nM |  |  |  |  |  |  |  | Cc1nc(N)nc2c1cc(-c1ccc(N)nc1)c(=O)n2[C@H]1CCCOC1
13.5 nM | 205 nM | 6.1 nM | 96.2 nM | 151 nM | 741 nM | 31.2% |  |  |  | Cc1nc(N)nc2c1cc(-c1ccc(N(C)C)nc1)c(=O)n2C1CCCOC1 (centres unmarked) [reference compound] [listing 1 of 2 here]
 |  |  |  |  |  | 41.3% | 71.7 nM | 247 nM | 1330 nM | Cc1nc(N)nc2c1cc(-c1ccc(N(C)C)nc1)c(=O)n2C1CCCOC1 (centres unmarked) [reference compound] [listing 2 of 2 here]
9.2 nM | 471 nM | 5.8 nM |  |  |  |  |  |  |  | Cc1nc(N)nc2c1cc(-c1ccc(N(C)C)nc1)c(=O)n2[C@H]1CCCOC1 [reference compound]

The next lines start with the molecule.

Structure (SMILES) | IC50 [1] | IC50 [2] | IC50 [3] | IC50 [4] | IC50 [5] | IC50 ([6]; PC-3, 48 hr) | Mouse Liver Microsome Oxidation (%) [7] | IC50 ([4]; Homo sapiens, PC-3, 3 h) | IC50 ([5]; Homo sapiens, MCF7, 48 h) | IC50 ([6]; Homo sapiens, PC-3, 48 h)
Cc1nc(N)nc2c1cc(-c1ccc(N)nc1)c(=O)n2C1CCOCC1 | 9 nM | 19.8 nM | 3.2 nM |  |  |  | −7.8% | 25 nM | 152 nM | 280 nM
Cc1nc(N)nc2c1cc(-c1ccc(N)nc1)c(=O)n2C1CCOC1 (centres unmarked) [listing 1 of 2 here] |  |  |  |  |  |  | 1.7% | 36.6 nM | 377 nM | 401 nM
Cc1nc(N)nc2c1cc(-c1ccc(N)nc1)c(=O)n2[C@H]1CCOC1 | 15.5 nM | 16.7 nM | 5.5 nM |  |  |  |  |  |  | 
Cc1nc(N)nc2c1cc(-c1ccc(N)nc1)c(=O)n2C1CCOC1 (centres unmarked) [listing 2 of 2 here] | < 9.1 nM | 34 nM | 2.5 nM | 18.5 nM | 217 nM | 497 nM | −8.2% |  |  | 
COc1ccc(-c2cc3c(C)nc(N)nc3n(C3CCCOC3)c2=O)cn1 (centres unmarked) [reference compound] | 2.8 nM | 6.8 nM | 6.8 nM |  |  |  | 45.6% | 40.8 nM | 218 nM | 469 nM
